Values quoted from earlier work as cited in PMC12150326 (The Journal of Organic Chemistry, 2025).
Where “and” joins values, the source holds several entries; their conditions need not be identical. Equal values may be shown once. Read-outs that look alike come from different tables or passages of the source.

What was measured:
Design in all cases: method as in NCI-60 database
NCI-H460 = NCI-H460 ref NCI-60 database, cited from earlier work
RPMI-8226 = RPMI-8226 ref NCI-60 database, cited from earlier work
PC-3 = PC-3 ref NCI-60 database, cited from earlier work
A549/ATCC = A549/ATCC ref NCI-60 database, cited from earlier work
A498 = A498 ref NCI-60 database, cited from earlier work
SNB-19 = SNB-19 ref NCI-60 database, cited from earlier work
OVCAR-3 = OVCAR-3 ref NCI-60 database, cited from earlier work
HOP-18 = HOP-18 ref NCI-60 database; cited from earlier work
SF-539 = SF-539 ref NCI-60 database, cited from earlier work
SN12C = SN12C ref NCI-60 database, cited from earlier work
NCI-H226 = NCI-H226 ref NCI-60 database, cited from earlier work
CCRF-CEM = CCRF-CEM ref NCI-60 database, cited from earlier work
KM20L2 = KM20L2 ref NCI-60 database, cited from earlier work
T-47D = T-47D ref NCI-60 database, cited from earlier work
M19-MEL = M19-MEL ref NCI-60 database, cited from earlier work
U251 = U251 ref NCI-60 database, cited from earlier work
ACHN = ACHN ref NCI-60 database, cited from earlier work
DMS 114 = DMS 114 ref NCI-60 database, cited from earlier work
HOP-62 = HOP-62 ref NCI-60 database, cited from earlier work

COc1cc2c(c(OC)c1OC)-c1ccc(OC)c(=O)cc1[C@@H](NC(C)=O)CC2 [Colchicine, (−)-Colchicine]
GI50 (NCI-H460): 0.02 µM | Log10GI50 (NCI-H460): -7.65 Molar | Log10LC50 (NCI-H460): > -4.00 Molar | Log10TGI (NCI-H460; listed as 757/9): -7.12 Molar | Log10GI50 (NCI-H460; listed as 757/21): -7.62 Molar and -7.50 Molar and -7.65 Molar | GI50 (RPMI-8226): < 0.01 µM | Log10GI50 (RPMI-8226): < -8 Molar | Log10LC50 (RPMI-8226): > -4.00 Molar | Log10TGI (RPMI-8226): > -4.00 Molar | Log10GI50 (RPMI-8226; listed as 757/1): < -8.00 Molar | GI50 (PC-3): 0.024 µM | Log10GI50 (PC-3): -7.62 Molar | Log10LC50 (PC-3): > -4.00 Molar | Log10GI50 (PC-3; listed as 757/9): -7.65 Molar | Log10TGI (PC-3; listed as 757/9): -6.37 Molar | Log10GI50 (PC-3; listed as 757/21): -7.62 Molar | Log10TGI (PC-3; listed as 757/21): > -4.00 Molar | GI50 (A549/ATCC): 0.26 µM | Log10GI50 (A549/ATCC): -6.58 Molar | Log10LC50 (A549/ATCC): > -4.00 Molar | Log10TGI (A549/ATCC): > -4.00 Molar | Log10GI50 (A549/ATCC; listed as 757/9): -6.57 Molar | Log10LC50 (A498): > -4.00 Molar | Log10GI50 (A498; listed as 757/1): -6.96 Molar | Log10TGI (A498; listed as 757/1): > -4.00 Molar | Log10TGI (A498; listed as 757/9): -5.50 Molar | Log10GI50 (A498; listed as 757/21): -7.68 Molar and -7.40 Molar | GI50 (SNB-19): 0.04 µM | Log10GI50 (SNB-19): -7.43 Molar | Log10LC50 (SNB-19): > -4.00 Molar | Log10GI50 (SNB-19; listed as 757/1): < -8.00 Molar | Log10GI50 (SNB-19; listed as 757/9): -7.55 Molar | Log10GI50 (SNB-19; listed as 757/21): -7.22 Molar and -7.43 Molar | Log10GI50 (OVCAR-3; listed as 757/1): -7.58 Molar | Log10LC50 (OVCAR-3; listed as 757/1): > -4.00 Molar | Log10TGI (OVCAR-3; listed as 757/1): -7.12 Molar | Log10GI50 (OVCAR-3; listed as 757/9): -7.81 Molar | Log10LC50 (OVCAR-3; listed as 757/9): < -8.00 Molar | Log10TGI (OVCAR-3; listed as 757/9): -7.44 Molar | Log10GI50 (OVCAR-3; listed as 757/21): < -8.00 Molar and -7.73 Molar | Log10GI50 (HOP-18): > -4.00 Molar | Log10LC50 (HOP-18): > -4.00 Molar | Log10TGI (HOP-18): > -4.00 Molar | GI50 (SF-539): 0.03 µM | Log10GI50 (SF-539): -7.54 Molar | Log10GI50 (SF-539; listed as 757/1): -7.48 Molar | Log10TGI (SF-539; listed as 757/9): -6.82 Molar | Log10LC50 (SF-539; listed as 757/21): > -4.00 Molar and -4.05 Molar | GI50 (SN12C): 0.054 µM | Log10GI50 (SN12C): -7.27 Molar | Log10LC50 (SN12C): > -4.00 Molar | Log10GI50 (SN12C; listed as 757/9): < -8.00 Molar | Log10GI50 (SN12C; listed as 757/21): -7.33 Molar and -7.28 Molar and -7.27 Molar | Log10TGI (SN12C; listed as 757/21): > -4.00 Molar and -4.21 Molar | GI50 (NCI-H226): 0.03 µM | Log10GI50 (NCI-H226): -7.56 Molar | Log10LC50 (NCI-H226): > -4.00 Molar | Log10TGI (NCI-H226; listed as 757/1): > -4.00 Molar | Log10GI50 (NCI-H226; listed as 757/9): -7.18 Molar | Log10TGI (NCI-H226; listed as 757/9): -7.35 Molar | GI50 (CCRF-CEM): 0.02 µM | Log10GI50 (CCRF-CEM): -7.82 Molar | Log10GI50 (CCRF-CEM; listed as 757/1): -7.39 Molar | Log10LC50 (CCRF-CEM; listed as 757/9): < -8.00 Molar | Log10TGI (CCRF-CEM; listed as 757/9): < -8.00 Molar | Log10GI50 (CCRF-CEM; listed as 757/21): < -8.00 Molar and -7.93 Molar and -7.82 Molar | Log10LC50 (CCRF-CEM; listed as 757/21): > -4.00 Molar | Log10TGI (CCRF-CEM; listed as 757/21): > -4.00 Molar | Log10GI50 (KM20L2; listed as 757/1): < -8.00 Molar and -7.72 Molar | Log10LC50 (KM20L2; listed as 757/1): -7.10 Molar | Log10GI50 (KM20L2; listed as 757/21): -7.77 Molar | Log10LC50 (KM20L2; listed as 757/21): -7.19 Molar | Log10TGI (KM20L2; listed as 757/21): -7.48 Molar | GI50 (T-47D): 75.7 µM | Log10GI50 (T-47D): -4.12 Molar | Log10LC50 (T-47D): > -4.00 Molar | Log10TGI (T-47D): > -4.00 Molar | Log10GI50 (T-47D; listed as 757/9): > -4.00 Molar | Log10GI50 (T-47D; listed as 757/21): -4.21 Molar | Log10LC50 (M19-MEL): > -4.00 Molar | Log10TGI (M19-MEL): > -4.00 Molar | Log10GI50 (M19-MEL; listed as 757/21): < -8.00 Molar | GI50 (U251): 0.03 µM | Log10GI50 (U251): -7.53 Molar | Log10GI50 (U251; listed as 757/1): -7.38 Molar | Log10LC50 (U251; listed as 757/1): > -4.00 Molar | Log10TGI (U251; listed as 757/1): > -4.00 Molar | Log10GI50 (U251; listed as 757/9): -7.47 Molar | Log10LC50 (U251; listed as 757/21): -4.31 Molar | Log10TGI (U251; listed as 757/21): -6.89 Molar and -6.80 Molar | GI50 (ACHN): 0.372 µM | Log10GI50 (ACHN): -6.43 Molar | Log10LC50 (ACHN): > -4.00 Molar | Log10TGI (ACHN): > -4.00 Molar | Log10GI50 (ACHN; listed as 757/21): -6.40 Molar and -6.43 Molar | Log10LC50 (DMS 114): > -4.00 Molar | Log10GI50 (DMS 114; listed as 757/1): -4.75 Molar | Log10GI50 (DMS 114; listed as 757/21): < -8.00 Molar | Log10TGI (DMS 114; listed as 757/21): -7.73 Molar and -7.65 Molar | Log10LC50 (HOP-62): > -4.00 Molar | Log10TGI (HOP-62): > -4.00 Molar | Log10GI50 (HOP-62; listed as 757/9): -7.43 Molar
